This passage reports EC50 results from patent US9708259B2 (Hoffmann-La Roche Inc., priority 2013, dated 2017).

Changes are numbered by the printed parent chain.

The first assay deals with T1, human M1 (Homo sapiens, UniProt P11229).
T1 construct: expressed in transfected cells; host or cells: CHO cells
T1 sequence (P11229 1-460): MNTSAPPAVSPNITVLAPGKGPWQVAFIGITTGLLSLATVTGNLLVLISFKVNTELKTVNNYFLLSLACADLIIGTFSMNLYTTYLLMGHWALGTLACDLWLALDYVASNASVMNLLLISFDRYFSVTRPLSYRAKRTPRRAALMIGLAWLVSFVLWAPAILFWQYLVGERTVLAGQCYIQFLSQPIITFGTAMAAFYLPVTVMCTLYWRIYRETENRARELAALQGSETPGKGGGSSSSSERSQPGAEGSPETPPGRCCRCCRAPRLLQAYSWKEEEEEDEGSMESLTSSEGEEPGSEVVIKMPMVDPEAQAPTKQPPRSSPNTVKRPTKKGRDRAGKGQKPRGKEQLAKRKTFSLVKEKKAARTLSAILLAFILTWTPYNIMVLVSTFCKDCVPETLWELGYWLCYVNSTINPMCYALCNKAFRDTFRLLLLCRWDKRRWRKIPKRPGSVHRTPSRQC
The assay is described as follows: M1 PAM assay (FLIPR intracellular calcium), human M1. The class given is cell-based.
Conditions: not given
How it is done: The assay study the effect of several concentrations of test compounds on basal or acetylcholine-stimulated Ca^2+ levels using FLIPR.
CHO human M1 are plated the day before the experiments at 2×10^5 cells/ml in PDL BioCoat 96 well black/clear plate (Becton 35 4640). The cells are grown at 37° C. and 5% CO2 in the following medium: F12 Nut Mix (Gibco 21765), 10% FCS heat inactivated (GIBCO 16000-044), 1% Pen Strep (Gibco,15140) and 200 μg/ml Geneticin (Gibco 11811). On the day of the experiment, the medium was removed and replaced by […] of dye loading buffer containing Hanks Balanced Salt solution (HBSS, 14065-049, Gibco) with 20 mM HEPES (Gibco 15630-056), 2 mM Probenicid (Sigma P8761), […] ester (Molecular Probes F-14202), 10% Pluronic acid Molecular Probes P-3000) pH=7.4 and incubated at 37° C. After 60 minutes extracellular dye was removed and the cells were washed five times with FLIPR buffer containing HBSS (Gibco 14065-049) with 20 mM HEPES (Gibco, 15630-056), 2 mM Probenicid (Sigma P8761) pre-warmed at 37° C. using and Ebml cell washer leaving […] of FLIPR buffer in each well. The cell plate and the diluted compounds (1% DMSO final concentration) are placed on the platform of the FLIPR and the door closed. A signal test to check background fluorescence and basal fluorescence signal is performed. Laser intensity is adjusted if necessary. Two minutes preincubation with the diluted test compounds is provide to determine any agonist activity on the M1 receptor by comparison to 30 nM Acetylcholine control. In order to determine any modulator activity the diluted compounds were added to cells and after two minutes preincubation, the EC20 of acetylcholine is added followed by another two minutes preincubation before the measurement of intracellular Ca^2+ with a FLIPR (Molecular Devices).
A word on the EC50: it is the concentration at which the effect is half-maximal. With `N#Cc1cccc(Cn2cc(C(=O)N[C@H]3CCCC[C@@H]3O)c3c(F)cccc32)c1` [Example 40, 1-(3-cyanobenzyl)-4-fluoro-N-((1S,2S)-2-hydroxycyclohexyl)-1H-indole-3-carboxamide], the EC50 turned out to be 476 nM.
Same read-out and setting: under `O=C(N[C@H]1CCCC[C@@H]1O)c1cn(Cc2ccc(OC(F)(F)F)cc2)c2cccc(F)c12` [Example 34, 4-fluoro-N-((1S,2S)-2-hydroxycyclohexyl)-1-(4-(trifluoromethoxy)benzyl)-1H-indole-3-carboxamide] stands 342 nM.
Still for that read-out and setting: under `O=C(N[C@H]1CCCC[C@@H]1O)c1cn(Cc2cccc(Cl)c2)c2cccc(F)c12` [Example 39, 1-(3-chlorobenzyl)-4-fluoro-N-((1S,2S)-2-hydroxycyclohexyl)-1H-indole-3-carboxamide] stands 205 nM; under `O=C(N[C@H]1CCCC[C@@H]1O)c1cn(Cc2ccc(OC(F)F)cc2)c2cccc(F)c12` [Example 29, 1-(4-(difluoromethoxy)benzyl)-4-fluoro-N-((1S,2S)-2-hydroxycyclohexyl)-1H-indole-3-carboxamide], 226 nM.
On the same count and under the same terms, under `COc1ccc(Cn2cc(C(=O)N[C@H]3CCCC[C@@H]3O)c3c(F)cccc32)c(F)c1` [Example 28, 4-fluoro-1-(2-fluoro-4-methoxybenzyl)-N-((1S,2S)-2-hydroxycyclohexyl)-1H-indole-3-carboxamide] stands 272 nM.

Staying with this assay, now noted: CHO human M1 cells, FLIPR Ca2+, with EC20 of acetylcholine; first value of the cell; read-out: hM1 EC50.
Take `Cn1cc(-c2ccc(Cn3cc(C(=O)N[C@H]4CCCC[C@@H]4O)c4c(F)cc(F)cc43)c(F)c2)cn1` [Example 5, 4,6-difluoro-1-(2-fluoro-4-(1-methyl-1H-pyrazol-4-yl)benzyl)-N-((1S,2S)-2-hydroxycyclohexyl)-1H-indole-3-carboxamide]: the EC50 was found to be 83.8 nM.
`NC(=O)c1cccc(Cn2cc(C(=O)N[C@H]3CCCC[C@@H]3O)c3c(F)cccc32)c1` [Example 81, 1-(3-carbamoylbenzyl)-4-fluoro-N-((1S,2S)-2-hydroxycyclohexyl)-1H-indole-3-carboxamide]: the EC50 came to 351 nM.
As to `Cc1ccc(F)c2c(C(=O)NC3CCOCC3)cn(Cc3ccc(-c4cnn(C)c4)cc3F)c12` [Example 133, 4-fluoro-1-(2-fluoro-4-(1-methyl-1H-pyrazol-4-yl)benzyl)-7-methyl-N-(tetrahydro-2H-pyran-4-yl)-1H-indole-3-carboxamide], the EC50 was determined as 48 nM.
`O=C(N[C@H]1CCOC[C@@H]1O)c1cn(CC2CCN(c3ccccn3)CC2)c2cccc(F)c12` [Example 136, 4-fluoro-N-((3R,4S)-3-hydroxytetrahydro-2H-pyran-4-yl)-1-((1-(pyridin-2-yl)piperidin-4-yl)methyl)-1H-indole-3-carboxamide]: the EC50 came to 134 nM.
Turning to `COc1ccc(F)c2c(C(=O)N[C@H]3CCOC[C@@H]3O)cn(Cc3ccc(-c4cnn(C)c4)cc3F)c12` [Example 153, 4-fluoro-1-(2-fluoro-4-(1-methyl-1H-pyrazol-4-yl)benzyl)-N-((3R,4S)-3-hydroxytetrahydro-2H-pyran-4-yl)-7-methoxy-1H-indole-3-carboxamide], the concentration for a half-maximal effect (EC50) came to 56 nM.
The same measure, in the same setting: under `CCOC(=O)Nc1ccc(Cn2cc(C(=O)N[C@H]3CCCC[C@@H]3O)c3c(F)cccc32)cc1` [Example 85, ethyl 4-((4-fluoro-3-((1S,2S)-2-hydroxycyclohexylcarbamoyl)-1H-indol-1-yl)methyl)phenylcarbamate] stands 42.9 nM.
Same read-out and setting: the figure for `Cn1cc(-c2ccc(Cn3cc(C(=O)NC4CCCCC4(F)F)c4c(F)cccc43)c(F)c2)cn1` (stereo not drawn) [Example 25, N-(2,2-difluorocyclohexyl)-4-fluoro-1-(2-fluoro-4-(1-methyl-1H-pyrazol-4-yl)benzyl)-1H-indole-3-carboxamide] is 359 nM.
Consider `CNC(=O)c1ccc(Cn2cc(C(=O)NC3CCSCC3)c3c(F)cccc32)cc1F` [Example 167, 4-fluoro-1-(3-fluoro-4-(methylcarbamoyl)benzyl)-N-(tetrahydro-2H-thiopyran-4-yl)-1H-indole-3-carboxamide], for which the EC50 turned out to be 47 nM.
Same read-out and setting: the figure for `CNC(=O)c1ccc(Cn2cc(C(=O)NC3CCCCC3(F)F)c3c(F)cccc32)cc1F` (stereo not drawn) [Example 165, N-(2,2-difluorocyclohexyl)-4-fluoro-1-(3-fluoro-4-(methy7lcarbamoyl)benzyl)-1H-indole-3-carboxamide] is 43 nM; for `CNC(=O)c1ccc(Cn2cc(C(=O)NC3CCOC(C)(C)C3)c3c(F)cccc32)cc1F` (stereo not drawn) [Example 166, N-(2,2-dimethyltetrahydro-2H-pyran-4-yl)-4-fluoro-1-(3-fluoro-4-(methylcarbamoyl)benzyl)-1H-indole-3-carboxamide] it is 35 nM; for `Cn1cc(-c2ccc(Cn3cc(C(=O)N[C@H]4CCCC[C@@H]4O)c4c(F)c(F)ccc43)cc2)cn1` [Example 57, 4,5-difluoro-N-((1S,2S)-2-hydroxycyclohexyl)-1-(4-(1-methyl-1H-pyrazol-4-yl)benzyl)-1H-indole-3-carboxamide] it is 139 nM.
The same measure, in the same setting: under `CN(C)C(=O)c1cccc(Cn2cc(C(=O)N[C@H]3CCCC[C@@H]3O)c3c(F)cccc32)c1` [Example 90, 1-(3-(dimethylcarbamoyl)benzyl)-4-fluoro-N-((1S,2S)-2-hydroxycyclohexyl)-1H-indole-3-carboxamide] stands 341 nM; under `CS(=O)(=O)c1ccc(Cn2cc(C(=O)N[C@H]3CCCC[C@@H]3O)c3c(F)cccc32)cc1` [Example 82, 4-fluoro-N-((1S,2S)-2-hydroxycyclohexyl)-1-(4-(methylsulfonyl)benzyl)-1H-indole-3-carboxamide], 435 nM.
For the compound `CNC(=O)c1ccc(Cn2cc(C(=O)NC3CCOCC3C)c3c(F)cccc32)cc1F` (stereo not drawn) [Example 168, 4-fluoro-1-(3-fluoro-4-(methylcarbamoyl)benzyl)-N-(3-methyltetrahydro-2H-pyran-4-yl)-1H-indole-3-carboxamide], the EC50 came to 97 nM.
Same read-out and setting: under `Cn1cc(-c2ccc(Cn3nc(C(=O)NC4CCOCC4)c4c(F)cccc43)cc2)cn1` [Example 69, 4-fluoro-1-(4-(1-methyl-1H-pyrazol-4-yl)benzyl)-N-(tetrahydro-2H-pyran-4-yl)-1H-indazole-3-carboxamide] stands 344 nM; under `Cn1cc(-c2cccc(Cn3cc(C(=O)N[C@H]4CCCC[C@@H]4O)c4c(F)cccc43)c2)cn1` [Example 35, 4-fluoro-N-((1S,2S)-2-hydroxycyclohexyl)-1-(3-(1-methyl-1H-pyrazol-4-yl)benzyl)-1H-indole-3-carboxamide], 226 nM.
On the same count and under the same terms, the figure for `O=C(N[C@H]1CCCC[C@@H]1O)c1cn(CC2CCN(c3ccccn3)CC2)c2cccc(F)c12` [Example 160, 4-Fluoro-N-((1S,2S)-2-hydroxycyclohexyl)-1-((1-(pyridin-2-yl)piperidin-4-yl)methyl)-1H-indole-3-carboxamide] is 196 nM; for `CNC(=O)c1cccc(Cn2cc(C(=O)N[C@H]3CCCC[C@@H]3O)c3c(F)cccc32)c1` [Example 89, 4-fluoro-N-((1S,2S)-2-hydroxycyclohexyl)-1-(3-(methylcarbamoyl)benzyl)-1H-indole-3-carboxamide] it is 319 nM.

A further assay has as its target T2, ratM1 (Rattus norvegicus, UniProt P08482).
T2 construct: expressed in transfected cells; host or cells: CHO cells (stated generally for the assay, not specifically for rat M1)
T2 sequence (P08482 1-460): T1 sequence (P11229 1-460) with A5V, T254S, P309S, R320K, A337G, I413V
Nature of the assay: M1 PAM assay (FLIPR intracellular calcium), rat M1. As to conditions: rat M1, FLIPR Ca2+; second value of the cell; read-out: ratM1 EC50. It is filed as cell-based.
In the case of `Cn1cc(-c2ccc(Cn3cc(C(=O)N[C@H]4CCCC[C@@H]4O)c4c(F)cc(F)cc43)c(F)c2)cn1` [Example 5, 4,6-difluoro-1-(2-fluoro-4-(1-methyl-1H-pyrazol-4-yl)benzyl)-N-((1S,2S)-2-hydroxycyclohexyl)-1H-indole-3-carboxamide], the EC50 came out at 231 nM.
The same measure, in the same setting: under `Cc1ccc(F)c2c(C(=O)NC3CCOCC3)cn(Cc3ccc(-c4cnn(C)c4)cc3F)c12` [Example 133, 4-fluoro-1-(2-fluoro-4-(1-methyl-1H-pyrazol-4-yl)benzyl)-7-methyl-N-(tetrahydro-2H-pyran-4-yl)-1H-indole-3-carboxamide] stands 84 nM; under `O=C(N[C@H]1CCOC[C@@H]1O)c1cn(CC2CCN(c3ccccn3)CC2)c2cccc(F)c12` [Example 136, 4-fluoro-N-((3R,4S)-3-hydroxytetrahydro-2H-pyran-4-yl)-1-((1-(pyridin-2-yl)piperidin-4-yl)methyl)-1H-indole-3-carboxamide], 428 nM.
Still for that read-out and setting: the figure for `COc1ccc(F)c2c(C(=O)N[C@H]3CCOC[C@@H]3O)cn(Cc3ccc(-c4cnn(C)c4)cc3F)c12` [Example 153, 4-fluoro-1-(2-fluoro-4-(1-methyl-1H-pyrazol-4-yl)benzyl)-N-((3R,4S)-3-hydroxytetrahydro-2H-pyran-4-yl)-7-methoxy-1H-indole-3-carboxamide] is 56 nM.
